Consider three molecules from patent US9907758B2, “Process for preparing solid lipid sustained release nanoparticles for delivery of vitamins” (Department of Biotechnology (DBT), priority 2012, dated 2018).

Where two headings read alike, the source gives them in different places. Bounds are passed on as bounds.

For data set [1] the following is noted: in vivo; cited from earlier work.
The nature of data set [2]: In vivo pharmacokinetic studies, oral and subcutaneous. The arrangement: species or system male Wistar rats. The following applies: for AUC(0-t): plasma. Here is the method:
In vivo pharmacokinetic studies were performed using male Wistar rats weighing 250-300 g. The protocol was duly approved by the Institutional Animal Ethics Committee (IAEC) of Panjab University, Chandigarh, India. The animals were divided into four groups (n=6). Group 1 was administered 2.5 Lacs International units (IU) subcutaneous retinoic acid and vitamin D3 SLNs simultaneously, Group 2 was also simultaneously administered 2.5 Lacs IU free retinoic acid and vitamin D3. Group 3 was administered simultaneously 1 Lac IU oral Retinoic acid and vitamin D3 SLNs, Group 4 was administered simultaneously 1 Lac IU oral free Retinoic acid and vitamin D3. The blood samples (0.5 mL) were withdrawn from sinus under clavicle and, collected into heparinized micro-centrifuge tubes (containing […] of 1000 IU heparin/mL of blood) at 0.5 h, 1 h, 2 h, 4 h, 8 h, 12 h, 24 h, 48 h, 72 h, 96 h, 120 h, 144 h, 168 h. After each sampling, 1 mL of dextrose-normal saline was administered to prevent changes in the central compartment volume and electrolytes. Plasma was separated by centrifuging the blood samples at 4000 rpm for 10 min at 4° C. After centrifugation, the plasma obtained was stored at −20° C. until analysis.
500 microliter blank plasma was taken and into it added 20 microliter stock standard dilutions of different concentrations (0.01 mcg to 1 mcg) (vortex) and added 400 microliter of chilled ethanol (vortex) and to it was added 2 ml (n-Hexane:ethylacetate (90:10) (Vortex) and the same was kept at −20° C. for 5 min followed by Cold centrifuge at 5000 rpm for 5 min finally separating the upper layer carefully and drying the solution under rotavapour/nitrogen gas, after drying add 250 microliter of acetonitrile and inject the sample to HPLC/UPLC. The method was applied for extraction procedure for Pharmacokinetic samples after giving SLNs and free drugs of Retinoic acid and vitamin D3 formulation to rats as oral/subcutaneous routes and sampling time points (0.5 h, 1 h, 2 h, 4 h, 8 h, 12 h, 24 h, 48 h, 72 h, 96 h, 120 h, 144 h, 168 h).

For `C=C1CC[C@H](O)C/C1=C/C=C1\CCC[C@]2(C)[C@@H]([C@H](C)CCCC(C)C)CC[C@@H]12` [vitamin D3, cholecalciferol], the Cmax in plasma entry in data set [1] is reported as “not more than 75 ng/ml”.
One may read the Cmax as the highest concentration seen after dosing. As a reminder, the AUC(0-inf) is total exposure, with the tail of the curve extrapolated. A lower AUC(0-inf) goes with less exposure. In general, half-life refers to the time needed for the level to fall by half in the phase considered. Low values mean rapid decline, high ones slow decline. Broadly, the Tmax is the time from dosing to the highest level. As to `CC1=C(/C=C/C(C)=C/C=C/C(C)=C/C(=O)O)C(C)(C)CCC1` [ATRA-S, all-trans retinoic acid], the maximum concentration (Cmax) in data set [2] (male, Wistar, 1 Lac IU, plasma ATRA, oral administration, rat, read-out: Cmax) was found to be 151 ng/mL; in data set [2] (male, Wistar, sc, 2.5 Lacs IU, plasma ATRA, single dose subcutaneous, rat, read-out: Cmax), 1390 ng/mL; in data set [2] (male, Wistar, sc, plasma ATRA, single dose subcutaneous injection, 2.5 Lac I.U, rat, read-out: Cmax), 1400 ng/mL; in data set [2] (male, Wistar, plasma ATRA, single dose oral, 1 Lac I.U, rat, read-out: Cmax) it was 151 ng/mL. The AUC(0-t) was 357 ng·h/mL in data set [2] (male, Wistar, rat, po, 1 Lac I.U, plasma ATRA, single dose oral, 1 Lac I.U, rat, read-out: AUC (0-T)); 714 ng·h/mL in data set [2] (male, Wistar, rat, po, 1 Lac I.U, plasma ATRA, single dose oral, 1 Lac I.U, rat, read-out: AUC (T-∞)); 356 ng·h/mL in data set [2] (male, Wistar, rat, po, 1 Lac IU, plasma ATRA, oral administration, rat, read-out: AUC0-t); 713 ng·h/mL in data set [2] (male, Wistar, rat, po, 1 Lac IU, plasma ATRA, oral administration, rat, read-out: AUCt-∞); 2820 ng·h/mL in data set [2] (male, Wistar, rat, sc, 2.5 Lac I.U, plasma ATRA, single dose subcutaneous, 2.5 Lac I.U, rat, read-out: AUC (0-T)); 2950 ng·h/mL in data set [2] (male, Wistar, rat, sc, 2.5 Lac I.U, plasma ATRA, single dose subcutaneous, 2.5 Lac I.U, rat, read-out: AUC (T-∞)). Besides, the AUC(0-t) in data set [2] (male, Wistar, rat, sc, 2.5 Lacs IU, plasma ATRA, single dose subcutaneous, rat, read-out: AUC0-t) was 2820 ng·h/mL. For the same molecule, in data set [2] (male, Wistar, sc, 2.5 Lacs IU, plasma ATRA, single dose subcutaneous, rat), the AUC(0-inf) worked out at 2950 ng·h/mL. Moreover, the half-life was 57 min in data set [2] (male, Wistar, sc, plasma ATRA, single dose subcutaneous, 2.5 Lac I.U, rat) and 290 min in data set [2] (male, Wistar, plasma ATRA, single dose oral, 1 Lac I.U, rat). The Tmax in data set [2] (male, Wistar, sc, plasma ATRA, single dose subcutaneous, 2.5 Lac I.U, rat, read-out: Tmax) was 30 min; in data set [2] (male, Wistar, plasma ATRA, single dose oral, 1 Lac I.U, rat, read-out: Tmax), 54 min. Besides, the Kel in data set [2] (plasma ATRA, single dose oral, 1 Lac I.U, rat) was 0.17; in data set [2] (plasma ATRA, single dose subcutaneous, 2.5 Lac I.U, rat) it was 0.74. In addition, in data set [2] (rat plasma), the “plasma ATRA dropped to an undetectable level at, after dosing” value is on record as 4 h.
With `C=C1CC[C@H](O)C/C1=C/C=C1\CCC[C@]2(C)[C@@H]([C@H](C)CCCC(C)C)CC[C@@H]12` [Vitamin D3-S, cholecalciferol], the Cmax in data set [2] (male, Wistar, rat, in vivo, po) is below 25 ng/mL; in data set [2] (male, Wistar, rat, in vivo, sc), below 25 ng/mL. Besides, the Tmax was 0 min in data set [2] (male, Wistar, rat, in vivo, po) and 0 min in data set [2] (male, Wistar, rat, in vivo, sc). Further, the Kel in data set [2] (plasma vitamin D3, single dose oral, 1 Lac IU, rat) was 0.0; in data set [2] (plasma vitamin D3, single dose subcutaneous, 2.5 Lac I.U, rat) it was 0.0. The “CL” value in data set [2] (rat, in vivo, po) worked out at 0.0 mL/h/g; in data set [2] (rat, in vivo, sc), 0.0 mL/h/g. In addition, the T1/2 stood at 0 h in data set [2] (rat, in vivo, po) and 0 h in data set [2] (rat, in vivo, sc).
